Test results from patent US20170128480A1, “Cardiac Glycosides for the Treatment of Hypercholesterolemia” (priority 2015, published 2017).

Tests used:
human ApoB-100 = test: Drug treatment of humanized FRGN avatar mice, serum human ApoB-100 and albumin by ELISA; format: in vivo; conditions: i.p., 48-hour period, Digoxin 0.5 mg/kg, Proscillaridin 0.6 mg/kg/day, p≦0.05
Procedure: Prior to any drug or vehicle treatment, the ratio of ApoB-100 to albumin is approximately 30% higher in the serum of avatars repopulated with hepatocytes from donor A compared to donor B (p=0.032) (FIG. 8A). Human ApoB-100 and albumin is then measured before and after treatment with DMSO (vehicle), Digoxin or Proscillaridin, over a 48-hour period of time (FIG. 8C). […] The concentration of human albumin is unaffected in the serum of the same animals (FIG. 8B).
A sandwich ELISA to detect human albumin in tissue culture supernatants and mouse sera uses a 1:100 dilution of a capture human albumin coating antibody (Bethyl laboratories, A80-129A) and a 1:85,000 dilution of a Horseradish Peroxidase (HRP) conjugated human albumin detection antibody (Bethyl laboratories, A80-129P). Bound antibody is detected using 3,3′,5,5′-tetramethylbenzidine (TMB) and the concentration of albumin in each sample is determined by comparing to a standard curve (Bethyl laboratories, RS10-110). Human lipidated apoB-100 is detected using a commercial sandwich ELISA (product code: 3715-1H-6; MabTech, Inc.) and detected using TMB. The concentration of apoB-100 is determined by comparing to a standard curve using lipidated apoB-100 supplied by the manufacturer.
Fah^−/−Rag2^−/−IL2 gr^−/−NOD (FRGN) mice are generated and supplied by Dr. Markus Grompe. […]

hepatocytes = test: Lipoprotein profile (VLDL/LDL/HDL) of hepatocyte secretion by FPLC; format: cell-based; conditions: 310 nm; 4-hr collection period
Procedure: FIGS. 13A-B (A) is a graph of the results of a FPLC showing the impact of Digoxin and Proscillaridin on the increase in the size of LDL/VLDL particles and the increase of HDL particle number in serum (FIG. 13B, enhanced).
The experiment is a simple collection of cell culture media and then uses a known assay to measure VLDL/LDL/HDL by HPLC.
Cell culture media (the serum samples of example 5) is collected and then using a known assay (see, Example 3) VLDL/LDL/HDL is measured by FPLC HPLC. The experiment was performed by Evanthia Pashos Ph.D, a post-doctoral researcher at the University of Pennsylvania. Dr. Pashos was instructed what concentration of drugs to use, how long to incubate, and to record lipoprotein profiles for HDL, LDL, VLDL. […] Hepatocyte secretion was collected and analyzed over a 4-hr collection period.

[1] = system: FH patient-specific iPSC-derived hepatocytes; test: ApoB-100 ELISA on culture medium of FH patient-specific iPSC-derived hepatocytes ([…] screen and triplicate validation); format: cell-based, human; conditions: tested in triplicate; FIG. 3
Procedure: ApoB-100 secretion is measured by enzyme linked immunosorbent assay (ELISA) using an antibody that specifically detects lipidated apoB-100, which represents lipoprotein particles secreted by the iPSC-derived hepatocytes. […] FH patient-specific iPSC cells are differentiated to hepatocyte-like cells in 96-well plates and the levels of lipidated ApoB-100 are measured before and after the application of 2320 small molecules from the [sequence] collection drug library (FIGS. 2A-B).
Using the before-drug and after-drug ApoB-100 concentration for each individual well (see the Examples below; each well represents 1 drug), a post:pre drug ratio of ApoB-100 is generated (referred to as delta-apoB-100; FIGS. 2A and 2B) and primary hits are identified by z-score analysis (FIG. 2B) as described by Zhang (Zhang, X. D., J Biomol Screen 16, 775-785 (2011)). A z-score is calculated for each compound, representing a multiple of the standard deviation of all the compounds included in the parent plate (30 plates total—FIG. 2A). […]
Pre-drug and post-drug apoB-100 concentrations are determined for each compound in the [sequence] library using a standard curve and four-parameter logistic (4PL) regression model. […] Primary hits are validated in secondary replicate experiments (n=3), and statistical significance is determined by a Student's t-test. […]

Na+/K+-ATPase α2 subunit = Na+/K+-ATPase α2 subunit (Rattus norvegicus, UniProt P06686); conditions: Kolansky et al. 1992; cited from earlier work
Na+/K+-ATPase α3 subunit = Na+/K+-ATPase α3 subunit (Rattus norvegicus, UniProt P06687); conditions: Kolansky et al. 1992; cited from earlier work

Compound	serum human ApoB-100 levels (human ApoB-100)	HDL secretion (hepatocytes)	VLD/LDL particle size (hepatocytes)	VLD/LDL total quantity (hepatocytes)	Reductions of ApoB-100 levels, of DMSO controls [1] [%]	ouabain sensitivity (Na+/K+-ATPase α2 subunit)	ouabain sensitivity (Na+/K+-ATPase α3 subunit) [nM]
CC1O[C@@H](O[C@H]2C(O)C[C@H](O[C@H]3C(O)C[C@H](OC4CC[C@@]5(C)[C@H](CC[C@@H]6[C@@H]5C[C@@H](O)[C@]5(C)[C@@H](C7=CC(=O)OC7)CC[C@]65O)C4)OC3C)OC2C)CC(O)[C@@H]1O (stereo partly drawn) [Digoxin]	significantly reduces serum ApoB-100 levels	increase HDL secretion	increase VLD/LDL particle size	reduce VLD/LDL total quantity	–	–	–
C[C@@H]1O[C@@H](O[C@H]2C[C@@H](O)[C@]3(CO)[C@H]4[C@H](O)C[C@]5(C)[C@@H](C6=CC(=O)OC6)CC[C@]5(O)[C@@H]4CC[C@]3(O)C2)[C@H](O)[C@H](O)[C@H]1O [Ouabain, Ouabain (Strophanthin)]	–	–	–	–	71	approximately 40 nM	~80
C[C@@H]1OC(O[C@@H]2C=C3CC[C@@H]4[C@H](CC[C@]5(C)[C@@H](c6ccc(=O)oc6)CC[C@]45O)[C@@]3(C)CC2)[C@H](O)C(O)C1O (stereo partly drawn) [Proscillaridin]	significantly reduces serum ApoB-100 levels	increase HDL secretion	increase VLD/LDL particle size	reduce VLD/LDL total quantity	–	–	–
Gitoxin	–	–	–	–	27	–	–
